Consider two molecules from patent US20150297619A1, “METHODS AND COMPOSITIONS FOR PRESERVING THE MUCOSAL BARRIER” (priority 2014, published 2015).

One test deals with intestinal villi. Kind of test: Morphological analysis of intestinal villi after ex vivo ischemia (Van Gieson/hematoxylin). Details: species or system rat. Conditions: for intestinal villi structure: jejunum and ileum after 2 hrs ex vivo ischemia. The method, then:
After the two-hour ischemic incubation, intestinal pieces from segments 2 (jejunum) and 7 (ileum) were embedded in O.C.T. (Tissue Tek, Torrance, Calif.) and snap frozen in t-methyl butane in liquid nitrogen. Intestine samples from segments 2 and 7 (for protease analysis) and segment 7 (for immunoblots) were snap frozen and stored for subsequent homogenization. Morphological Analysis and TUNEL Labeling—Intestinal segments frozen in O.C.T. were cut into 5 μm sections. Sections were fixed using ice-cold methanol (8 min at −20° C.) and immediately washed four times in distilled water. Nuclei were stained by incubating sections in freshly mixed Weigert's Iron Hematoxylin A and B (Electron Microscopy Science, Hatfield, Pa.) (10 min) followed by rinsing thoroughly with water. Collagen fibers were labeled by incubating (2 min) in Van Gieson's Solution (Electron Microscopy Science). Prior to mounting, all slides were dehydrated (70, 95, 100% ethanol) and cleaned with xylene. After air-drying overnight, sections were mounted using Hard Set Mounting Media (Vector Laboratories, Burlingame, Calif.). Digital images were captured with a 20× objective (numerical aperture 0.5) and digitally montaged together after background subtraction. The separation of the mucosal epithelial layer was quantified for groups that had intact villi following the two hour ischemic period. Images were blinded and the distance between the mucosal epithelial layer and the lamina propria was measured over five lengths across a minimum of 6 villi.

A further test has as its system hemorrhagic shock. Kind of test: Hemorrhagic shock model with enteral pretreatment, unflushed intestine (Example 1). The test is classed as in vivo, rat. To be noted: for lesions in the jejunum (gross morphology): enteral pretreatment, HS 90 min at 30 mmHg, 3 hours observation; for rate of MAP decrease during reperfusion: last 2 hours of reperfusion, mean±SD. As for the experimental part: Hemorrhagic Shock Model—Hemorrhagic shock (HS) was used to study the ability of treatments, shown in the ex vivo portion of the study to preserve the barrier and protect the intestine in the absence of luminal content, to prevent intestinal injury after ischemia/reperfusion injury in vivo when luminal content is present. Following general anesthesia, the femoral artery and vein were cannulated. Systolic, diastolic, heart rate, and mean arterial pressure (MAP) were recorded throughout the procedure using LabChart (AD Instruments, Dunedin, New Zealand). Rats were randomly divided into the following groups: […] No-HS animals were cannulated and immediately sacrificed for tissue collection. In the HS groups, anesthetized rats were subjected to laparotomy and the intestine was exposed, and a “Pre-HS” image was captured. […] Extra caution was applied to avoid over-inflation of the intestine. After injection, the intestine was carefully returned to the peritoneal cavity and the wound was covered with moist gauze and plastic wrap to keep the animal warm. To prevent clotting in catheters and shed blood, animals were heparinized (1 U/ml i.v., assuming 6% blood volume per body weight) prior to inducing hemorrhagic shock. […] At the end of ischemia, the shed blood was returned to the animal (0.5 ml/min). […] Gross morphology images of the intestine were captured, “Post-HS” At the end of reperfusion, segments of intestine (jejunum; 10 cm from ligament of Treitz) were snap frozen for homogenization and embedded in O.C.T. (Tissue Tek). MPO Activity—Myeloperoxidase (MPO) activity in the intestine as a measure for neutrophil accumulation was selected as an index of reperfusion injury after hemorrhagic shock. Segments from the jejunum (about at the position of segment 2 in the ex vitro study) were homogenized with their native luminal contents (PBS pH 6.0 in 0.5% HTAB). 40 μl of 2 mg/ml intestine homogenate was added to 180 μl of PBS (pH 6.0) mixed with 0.167 mg/ml o-dianisidine dihydrochloride (Sigma-Aldrich) in duplicate and 0.001% H2O2 (w/v). Absorbance was measured kinetically at 450 nm every 5 minutes for 1 hour at 37° C. As negative controls, 180 μl of PBS (pH 6.0) was added to 20 μl of sample and the absorbance values of these samples were subtracted from the measurements with the substrate. The change in absorbance was linear within this period, and MPO activity is presented as the change in absorbance per minute per milligram of protein.

The test system of test [1] is mucin 13, occludin, and E-cadherin. The test is described as follows: Immunoblots of epithelial barrier proteins in post-ischemic intestinal homogenates (segment 7). On the set-up: species or system rat. Conditions: ileum segment 7, two hour ex vivo ischemia. The method, then: Immunoblotting—To determine whether selected epithelial barrier proteins were degraded during ischemia, pre- and post-ischemic intestinal tissue homogenates (segment 7) were analyzed for relative levels of mucin 13, occludin, and E-cadherin.
Tissues were homogenized for immunoblot analysis in buffer (CelLytic, Sigma-Aldrich) with protease inhibitor cocktail (HALT, Thermo Scientific, 1:100 dilution) and centrifuged (1×10^4 g, 20 min). Protein concentration in supernatants was determined (BCA, ThermoScientific). To separate proteins by gel electrophoresis, 30 μg of protein/well were loaded in 8 or 12% resolving gels with 4% stacking gels and transferred to nitrocellulose membranes (Bio-Rad, Hercules, Calif.). Membranes were blocked for one hour with either 5% bovine serum albumin (BSA) or 5% nonfat milk in tris-buffered saline with 0.5% Tween-20 (TBS-T). Primary antibodies diluted in 1% BSA or 1% nonfat milk against mucin 13 (1:1000, extracellular domain, sc-66973 Santa Cruz Biotechnology, Santa Cruz, Calif.), E-cadherin (1:1000, intracellular domain, 33-4000, Invitrogen), occludin (1:1000, intracellular domain, 33-1500, Invitrogen), pancreatic trypsin (1:1000, sc-137077 Santa Cruz Biotechnology), or β-actin (1:1000, sc-130301, Santa Cruz Biotechnology) were incubated overnight at 4° C. After incubation, membranes were washed with TBS-T (3×, 10 min) before addition of goat anti-rabbit or rabbit anti-mouse secondary antibodies (Santa Cruz Biotechnology) diluted 1:1000 in TBS-T. Following secondary antibody incubation (60 min), the membranes were washed with TBS-T (3×) and developed.
(A western blot detects proteins with antibodies after separation by electrophoresis.)

`O=C[C@H](O)[C@@H](O)[C@H](O)[C@H](O)CO` [Glucose, glucose]: the intestinal villi structure entry with intestinal villi is “attenuated”. For the same molecule, the “separation between the lamina propria and the mucosal epithelial layer” value in the test with intestinal villi (jejunum, after 2 hrs ex vivo ischemia) is recorded as “still observed”. Further, in the test on hemorrhagic shock, the “lesions in the jejunum (gross morphology)” value is recorded as “had lesions form in the jejunum” and the “rate of MAP decrease during reperfusion” value is reported as −0.21±0.13 mmHg/min. Besides, in test [1], the “E-cadherin levels (immunoblot)” value is listed as “decreased irrespective of the presence of glucose”, the “mucin 13 levels (immunoblot)” value was “preserved” and the “occludin levels (immunoblot)” value is “preserved”.

As for `NC[C@H]1CC[C@H](C(=O)O)CC1` [tranexamic acid], the intestinal villi structure result in the test on intestinal villi is listed as “did not prevent the villi destruction”. Further, in the test with hemorrhagic shock, the “lesions in the jejunum (gross morphology)” value is “had lesions form in the jejunum” and the “rate of MAP decrease during reperfusion” value is recorded as −0.27±0.16 mmHg/min. Moreover, in test [1], the “mucin 13 levels (immunoblot)” value is listed as “able to preserve mucin 13 levels” and the “occludin levels (immunoblot)” value is given as “prevented a significant decrease in occludin”.
